These results are taken from paper PMC13393665, “Structure-based virtual screening identifies potential endogenous ligands of the human bitter taste receptor TAS2R46” (The Journal of Biological Chemistry, 2026).

Where two headings read alike, the source gives them in different places.

What all share (experiment): Clytin II luminescence calcium assay, HEK293
Holding throughout (type): cell-based

The target in assay [1] is T1, TAS2R46 (hTAS2R46) (Homo sapiens, UniProt P59540).
T1 construct: full-length TAS2R46 with first 45 amino acids of SST3 fused at N-terminus; pEF-DEST51; transient in HEK293 with G-alpha16-gust44 and mitochondrial Clytin II
T1 sequence (P59540 1-309): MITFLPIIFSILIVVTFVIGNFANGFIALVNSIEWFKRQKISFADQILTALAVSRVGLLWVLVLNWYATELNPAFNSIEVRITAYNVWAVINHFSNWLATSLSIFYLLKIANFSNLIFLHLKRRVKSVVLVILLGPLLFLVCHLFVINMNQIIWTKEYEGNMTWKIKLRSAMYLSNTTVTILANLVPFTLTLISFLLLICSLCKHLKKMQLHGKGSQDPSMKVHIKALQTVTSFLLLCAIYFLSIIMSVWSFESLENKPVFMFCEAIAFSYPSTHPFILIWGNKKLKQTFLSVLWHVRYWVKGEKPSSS

Assay [2] has as its target T1, TAS2R46 (hTAS2R46). The conditions noted are these: agonist; G-alpha16-gust44 co-expressed; HBSS, 10 mM HEPES pH 7.4.
The target in assay [3] is T1, TAS2R46 (hTAS2R46). Conditions: agonist; G-alpha16-gust44 co-expressed; HBSS, 10 mM HEPES pH 7.4. This is another data set of the same source.

As usually defined, the EC50 is the concentration giving half of the maximal effect. With `CC(=O)[C@@]1(O)CC[C@H]2[C@@H]3CCC4=CC(=O)CC[C@]4(C)[C@H]3CC[C@@]21C` [17-hydroxyprogesterone], the EC50 on TAS2R46 (hTAS2R46) [1] (read-out: EC50) was found to be 3.8 µM.

For `C[C@]12CCC(=O)C=C1CC[C@@H]1[C@@H]2CC[C@]2(C)C(=O)CC[C@@H]12` [androstenedione], at TAS2R46 (hTAS2R46) [2], the threshold entry is “All candidate compounds, except estrone, elicited concentration-dependent responses in TAS2R46-expressing HEK293 cells”.

Turning to `C[C@]12CCC(=O)C=C1CC[C@@H]1[C@@H]2CC[C@@]2(C)[C@H]1CC[C@]2(O)C(=O)CO` [cortexolone], the threshold result at TAS2R46 (hTAS2R46) [2] is “cortisol and corticosterone showed lower potency than their metabolic intermediates, deoxycorticosterone and cortexolone, respectively”.

For the molecule `C[C@]12C[C@H](O)[C@H]3[C@@H](CCC4=CC(=O)CC[C@@]43C)[C@@H]1CC[C@@H]2C(=O)CO` [corticosterone], at TAS2R46 (hTAS2R46) [2], the threshold entry was “cortisol and corticosterone showed lower potency than their metabolic intermediates, deoxycorticosterone and cortexolone, respectively”.

As to `C[C@]12CCC(=O)C=C1CC[C@@H]1[C@@H]2[C@@H](O)C[C@@]2(C)[C@H]1CC[C@]2(O)C(=O)CO` [cortisol], the threshold entry on TAS2R46 (hTAS2R46) [2] is “cortisol and corticosterone showed lower potency than their metabolic intermediates, deoxycorticosterone and cortexolone, respectively”.

`C[C@]12CC[C@H](O)CC1=CC[C@@H]1[C@@H]2CC[C@]2(C)C(=O)CC[C@@H]12` [dehydroepiandrosterone]: on TAS2R46 (hTAS2R46) [1] (read-out: EC50), the EC50 was found to be 14.9 µM.

As to `C[C@]12CC[C@H]3[C@@H](CCC4=CC(=O)CC[C@@]43C)[C@@H]1CC[C@@H]2C(=O)CO` [deoxycorticosterone], the threshold entry at TAS2R46 (hTAS2R46) [2] is “cortisol and corticosterone showed lower potency than their metabolic intermediates, deoxycorticosterone and cortexolone, respectively”.

As to `C[C@]12CCC(=O)C[C@@H]1CC[C@@H]1[C@@H]2CC[C@]2(C)[C@@H](O)CC[C@@H]12` [dihydrotestosterone], the threshold entry on TAS2R46 (hTAS2R46) [2] is reported as “All candidate compounds, except estrone, elicited concentration-dependent responses in TAS2R46-expressing HEK293 cells”.

For `C[C@]12CC[C@@H]3c4ccc(O)cc4CC[C@H]3[C@@H]1CCC2=O` [estrone], the “Clytin II luminescence calcium assay, HEK293” value on TAS2R46 (hTAS2R46) [3] was “All candidate compounds, except estrone, elicited concentration-dependent responses”.

For the molecule `CC(=O)[C@H]1CC[C@H]2[C@@H]3CCC4=CC(=O)CC[C@]4(C)[C@H]3CC[C@]12C` [progesterone], the EC50 on TAS2R46 (hTAS2R46) [1] (read-out: EC50) was found to be 7.9 µM.

For the molecule `C[C@]12CC[C@H]3[C@@H](CCC4=CC(=O)CC[C@@]43C)[C@@H]1CC[C@@H]2O` [testosterone], the EC50 at TAS2R46 (hTAS2R46) [1] turned out to be 11.7 µM.
